Laboratory results from PubChem BioAssay AID1259407 (Chemical Carcinogenesis Research Information System (CCRIS), 2018).
The source made the active and inactive calls. No rule for the calls is given here.

Test system: CCRIS mutagenicity, Ames/micronucleus/aberration tests
Assay: CCRIS mutagenicity studies
[1] = Test System: AMES SALMONELLA TYPHIMURIUM, Strain/Indicator: TA98, Metabolic Activation: NONE, Method: STANDARD PLATE
[2] = Test System: AMES SALMONELLA TYPHIMURIUM, Strain/Indicator: TA98, Metabolic Activation: RAT, LIVER, S-9, AROCLOR 1254, Method: STANDARD PLATE
[3] = Test System: AMES SALMONELLA TYPHIMURIUM, Strain/Indicator: TA100, Metabolic Activation: NONE, Method: STANDARD PLATE
[4] = Test System: AMES SALMONELLA TYPHIMURIUM, Strain/Indicator: TA100, Metabolic Activation: RAT, LIVER, S-9, AROCLOR 1254, Method: STANDARD PLATE
[5] = Test System: AMES SALMONELLA TYPHIMURIUM, Strain/Indicator: TA98, Metabolic Activation: NONE, Method: PREINCUBATION
[6] = Test System: AMES SALMONELLA TYPHIMURIUM, Strain/Indicator: TA100, Metabolic Activation: NONE, Method: PREINCUBATION
[7] = Test System: AMES SALMONELLA TYPHIMURIUM, Strain/Indicator: TA1535, Metabolic Activation: NONE, Method: PREINCUBATION

With Cc1cc(O)cc2oc(=O)c3c(O)cc(O)cc3c12 the mutagenic call [1] was “inactive; negative”, the mutagenic call (Test System: AMES SALMONELLA TYPHIMURIUM, Strain/Indicator: TA98, Metabolic Activation: RAT LIVER S-9, AROCLOR 1254, Method: STANDARD PLATE) was “inactive; negative” and the mutagenic call [2] was “inactive; negative”. For the same compound, the mutagenic call [3] was “inactive; negative”, the mutagenic call (Test System: AMES SALMONELLA TYPHIMURIUM, Strain/Indicator: TA100, Metabolic Activation: RAT LIVER S-9, AROCLOR 1254, Method: STANDARD PLATE) was “inactive; negative” and the mutagenic call [4] was “inactive; negative”. For the same compound, the mutagenic call (Test System: Ames Salmonella typhimurium, Strain/Indicator: TA97, Metabolic Activation: None, Method: Standard plate) was “inactive; negative. nitrosation did not increase mutagenic activity”, the mutagenic call (Test System: Ames Salmonella typhimurium, Strain/Indicator: TA97, Metabolic Activation: Rat, Liver, S-9, Aroclor 1254 (10%), Method: Standard plate) was “inactive; negative. nitrosation did not increase mutagenic activity” and the mutagenic call (Test System: Ames Salmonella typhimurium, Strain/Indicator: TA102, Metabolic Activation: None, Method: Standard plate) was “active; positive. nitrosation led to mutagenic product”. For the same compound, the mutagenic call (Test System: Ames Salmonella typhimurium, Strain/Indicator: TA102, Metabolic Activation: Rat, Liver, S-9, Aroclor 1254 (10%), Method: Standard plate) was “active; positive. nitrosation led to mutagenic product”, the mutagenic call (Test System: Ames Salmonella typhimurium, Strain/Indicator: TA104, Metabolic Activation: None, Method: Standard plate) was “inactive; negative. nitrosation did not increase mutagenic activity” and the mutagenic call (Test System: Ames Salmonella typhimurium, Strain/Indicator: TA104, Metabolic Activation: Rat, Liver, S-9, Aroclor 1254 (10%), Method: Standard plate) was “inactive; negative. nitrosation did not increase mutagenic activity”.

In the case of NCCNCCO, the mutagenic call (Test System: AMES SALMONELLA TYPHIMURIUM, Strain/Indicator: TA98, Metabolic Activation: HAMSTER, LIVER, S-9, AROCLOR 1254 (10%), Method: PREINCUBATION) was “inactive; negative”, the mutagenic call [5] was “inactive; negative” and the mutagenic call [1] was “inactive; negative”. The mutagenic call (Test System: AMES SALMONELLA TYPHIMURIUM, Strain/Indicator: TA98, Metabolic Activation: RAT, LIVER, S-9, AROCLOR 1254 (10%), Method: PREINCUBATION) was “inactive; negative”, the mutagenic call [2] was “inactive; negative” and the mutagenic call (Test System: AMES SALMONELLA TYPHIMURIUM, Strain/Indicator: TA98, Metabolic Activation: RAT, LIVER, S-9, PCB, Method: PREINCUBATION) was “inactive; negative”. For the same compound, the mutagenic call (Test System: AMES SALMONELLA TYPHIMURIUM, Strain/Indicator: TA100, Metabolic Activation: HAMSTER, LIVER, S-9, AROCLOR 1254 (10%), Method: PREINCUBATION) was “inactive; negative”, the mutagenic call [6] was “inactive; negative” and the mutagenic call [3] was “inactive; negative”. The mutagenic call (Test System: AMES SALMONELLA TYPHIMURIUM, Strain/Indicator: TA100, Metabolic Activation: RAT, LIVER, S-9, AROCLOR 1254 (10%), Method: PREINCUBATION) was “inactive; negative”, the mutagenic call [4] was “inactive; negative” and the mutagenic call (Test System: AMES SALMONELLA TYPHIMURIUM, Strain/Indicator: TA100, Metabolic Activation: RAT, LIVER, S-9, PCB, Method: PREINCUBATION) was “inactive; negative”. The mutagenic call (Test System: AMES SALMONELLA TYPHIMURIUM, Strain/Indicator: TA1535, Metabolic Activation: HAMSTER, LIVER, S-9, AROCLOR 1254 (10 OR 12%), Method: PREINCUBATION) was “active; positive”, the mutagenic call [7] was “inactive; negative” and the mutagenic call (Test System: AMES SALMONELLA TYPHIMURIUM, Strain/Indicator: TA1535, Metabolic Activation: NONE, Method: STANDARD PLATE) was “inactive; negative”. The mutagenic call (Test System: AMES SALMONELLA TYPHIMURIUM, Strain/Indicator: TA1535, Metabolic Activation: RAT, LIVER, S-9, AROCLOR 1254 (10%), Method: PREINCUBATION) was “active; positive”, the mutagenic call (Test System: AMES SALMONELLA TYPHIMURIUM, Strain/Indicator: TA1535, Metabolic Activation: RAT, LIVER, S-9, AROCLOR 1254, Method: STANDARD PLATE) was “inactive; negative” and the mutagenic call (Test System: AMES SALMONELLA TYPHIMURIUM, Strain/Indicator: TA1537, Metabolic Activation: HAMSTER, LIVER, S-9, AROCLOR 1254 (10%), Method: PREINCUBATION) was “inactive; negative”. The mutagenic call (Test System: AMES SALMONELLA TYPHIMURIUM, Strain/Indicator: TA1537, Metabolic Activation: NONE, Method: PREINCUBATION) was “inactive; negative”, the mutagenic call (Test System: AMES SALMONELLA TYPHIMURIUM, Strain/Indicator: TA1537, Metabolic Activation: NONE, Method: STANDARD PLATE) was “inactive; negative” and the mutagenic call (Test System: AMES SALMONELLA TYPHIMURIUM, Strain/Indicator: TA1537, Metabolic Activation: RAT, LIVER, S-9, AROCLOR 1254 (10%), Method: PREINCUBATION) was “inactive; negative”. For the same compound, the mutagenic call (Test System: AMES SALMONELLA TYPHIMURIUM, Strain/Indicator: TA1537, Metabolic Activation: RAT, LIVER, S-9, AROCLOR 1254, Method: STANDARD PLATE) was “inactive; negative”, the mutagenic call (Test System: AMES SALMONELLA TYPHIMURIUM, Strain/Indicator: TA1538, Metabolic Activation: NONE, Method: STANDARD PLATE) was “inactive; negative” and the mutagenic call (Test System: AMES SALMONELLA TYPHIMURIUM, Strain/Indicator: TA1538, Metabolic Activation: RAT, LIVER, S-9, AROCLOR 1254, Method: STANDARD PLATE) was “inactive; negative”. The mutagenic call (Test System: CHINESE HAMSTER OVARY, Strain/Indicator: CHO (HGPRT)/6-THIOGUANINE, Metabolic Activation: NONE) was “inactive; negative”, the mutagenic call (Test System: CHINESE HAMSTER OVARY, Strain/Indicator: CHO (HGPRT)/6-THIOGUANINE, Metabolic Activation: RAT, LIVER, S-9, AROCLOR 1254) was “inactive; negative” and the mutagenic call (Test System: UDS RAT HEPATOCYTES, Strain/Indicator: THY INCORP, Metabolic Activation: NONE, Method: SCINTILLATION SPECTROMETRY) was “inactive; negative”.

In the case of CCCCC(CC)COC(=O)c1ccc(C(=O)OCC(CC)CCCC)c(C(=O)OCC(CC)CCCC)c1 (stereo not drawn), the mutagenic call (Test System: AMES SALMONELLA TYPHIMURIUM, Strain/Indicator: TA97, Metabolic Activation: HAMSTER, LIVER, S-9, AROCLOR 1254 (10 OR 30%), Method: PREINCUBATION) was “inactive; negative”, the mutagenic call (Test System: AMES SALMONELLA TYPHIMURIUM, Strain/Indicator: TA97, Metabolic Activation: NONE, Method: PREINCUBATION) was “inactive; negative” and the mutagenic call (Test System: AMES SALMONELLA TYPHIMURIUM, Strain/Indicator: TA97, Metabolic Activation: RAT, LIVER, S-9, AROCLOR 1254 (10 OR 30%), Method: PREINCUBATION) was “inactive; negative”. The mutagenic call (Test System: AMES SALMONELLA TYPHIMURIUM, Strain/Indicator: TA98, Metabolic Activation: HAMSTER, LIVER, S-9, AROCLOR 1254 (10 OR 30%), Method: PREINCUBATION) was “inactive; negative”, the mutagenic call [5] was “inactive; negative” and the mutagenic call (Test System: AMES SALMONELLA TYPHIMURIUM, Strain/Indicator: TA98, Metabolic Activation: RAT, LIVER, S-9, AROCLOR 1254 (10 OR 30%), Method: PREINCUBATION) was “inactive; negative”. The mutagenic call (Test System: AMES SALMONELLA TYPHIMURIUM, Strain/Indicator: TA100, Metabolic Activation: HAMSTER, LIVER, S-9, AROCLOR 1254 (10 OR 30%), Method: PREINCUBATION) was “inactive; negative”, the mutagenic call [6] was “inactive; negative” and the mutagenic call (Test System: AMES SALMONELLA TYPHIMURIUM, Strain/Indicator: TA100, Metabolic Activation: RAT, LIVER, S-9, AROCLOR 1254 (10 OR 30%), Method: PREINCUBATION) was “inactive; negative”. The mutagenic call (Test System: AMES SALMONELLA TYPHIMURIUM, Strain/Indicator: TA1535, Metabolic Activation: HAMSTER, LIVER, S-9, AROCLOR 1254 (10 OR 30%), Method: PREINCUBATION) was “inactive; negative”, the mutagenic call [7] was “inactive; negative” and the mutagenic call (Test System: AMES SALMONELLA TYPHIMURIUM, Strain/Indicator: TA1535, Metabolic Activation: RAT, LIVER, S-9, AROCLOR 1254 (10 OR 30%), Method: PREINCUBATION) was “inactive; negative”.

With C[C@@H]1O[C@@H](O[C@H]2C[C@@H](O)[C@]3(CO)[C@H]4[C@H](O)C[C@]5(C)[C@@H](C6=CC(=O)OC6)CC[C@]5(O)[C@@H]4CC[C@]3(O)C2)[C@H](O)[C@H](O)[C@H]1O the mutagenic call (Test System: MOUSE LYMPHOMA, Strain/Indicator: L5178Y (TK+/TK-), Metabolic Activation: NONE, Method: SUSPENSION/PLATE) was “active; positive”.

With c1ccc2c(c1)ccc1cc3ccc4ccncc4c3cc12 the mutagenic call [1] was “inactive; negative”, the mutagenic call (Test System: AMES SALMONELLA TYPHIMURIUM, Strain/Indicator: TA98, Metabolic Activation: RAT, LIVER, S-9, AROCLOR 1254 (10%), Method: STANDARD PLATE) was “active; positive” and the mutagenic call [2] was “active; positive”. The mutagenic call [3] was “inactive; negative”, the mutagenic call (Test System: AMES SALMONELLA TYPHIMURIUM, Strain/Indicator: TA100, Metabolic Activation: RAT, LIVER, S-9, AROCLOR 1254 (10%), Method: STANDARD PLATE) was “active; positive” and the mutagenic call [4] was “active; positive”.
